Data taken from patent publication US9890429B2, “Compositions, kits, and methods for the identification, assessment, prevention, and therapy of cancer” (Dana-Farber Cancer Institute, Inc., priority 2012, dated 2018).

Columns and labels:
DLBCL cell lines [1] = assay: Proliferation of DLBCL cell lines after chemical CDK inhibition (alamarBlue assay); assay type: cell-based, human
Method: The identities of the DLBCL cell lines used in this study were confirmed via STR profiling (PowerPlex®1.2 system [Promega]) and the online verification services of the cell banks JCRB and DSMZ (available on the World Wide Web at cellbank.nibio.go.jp/cellbank_e.html and dsmz.de/STRanalysis). All DLBCL cell lines were cultured at 37° C. in 5% C02. SU-DHL-6, SU-DHL-7, DB and Toledo were propagated in RPMI; OCI-Ly3, OCI-Ly18 and OCI-Ly19 were grown in IMDM. HEK293T cells for lentiviral production were cultured in DMEM. All media were supplemented with 10 mM HEPES buffer, 2 mM L-glutamine, 50 U/mL penicillin, 50 U/mL streptomycin and 10% heat-inactivated fetal calf serum (Invitrogen). To ensure that cells were in logarithmic growth phase, cells were diluted to 200,000 cells/ml 48 h prior to any experiment.
The pan-CDK inhibitor, flavopiridol (Selleck Chemicals, Houston, USA), was suspended in DMSO (10 mM stock solution) and stored at −20° C. until use. Following treatment, proliferation of DLBCL cell lines was assessed with the alamarBlue assay (Invitrogen, Carlsbad, Calif.).

DLBCL cell lines [2] = assay: Cell cycle analysis (Hoechst 33342, flow cytometry); assay type: cell-based, human; conditions: 72 hr treatment
Method: Cells were re-suspended in 1 ml of growth medium supplemented with 10 μg/ml Hoechst 33342 (Molecular Probes, Invitrogen) as final concentration. After 60 min at 37° C. in the dark. Analysis was performed on a FACSCAriallu cytometer (BD Biosciences) using the UV laser 350 nm with 20 mW. The cell cycle was plotted as histogram after excluding doublets.
Cell cycle analysis was performed at 72 h using Hoechst 33342 (Supplemental Methods) and a FACSCAriaIIu cytometer (BD Biosciences) with a UV laser at 350 nm with 20 mW.

DLBCL cell lines [3] = assay: Apoptosis (Annexin V/7-AAD staining, subG1 peaks); assay type: cell-based, human; conditions: subG1 peaks and Annexin V/7-AAD staining, 72 hr treatment
Method: Cellular apoptosis was analyzed with an APC AnnexinV/7ADD Apoptosis Detection kit (BD Pharmingen). AnnexinV/7AAD plots and cell cycle graphics were generated using FlowJo software V7.6.1 for Windows (Tree Star).

[4] = tested on: RB1 phosphorylation (pS780 and pT821); conditions: DLBCL cell lines; 24 hr treatment
Method: For SDS-PAGE, total cell lysates were obtained using NP-40 lysis buffer (Tris-HCl 50 mM pH7.4, NaCl 150 mM, NaF 5 mM, EDTA 5 mM, 1% NP-40) supplemented with 1 mM activated Na3VO4 and complete proteinase inhibitor cocktail (Roche). […] After washing, membranes were probed against the indicated antigens following the manufacturer's recommendation. […] For chemoluminescence detection, enhanced ECL (GE Healthcare, Piscataway, N.J.) was used. After stripping, membranes were re-probed for GAPDH (1:3000, Santa Cruz Biotechnology) as loading control.

[5] = tested on: luciferized mCherry+ (Toledo, Ly4 or Ly1) DLBCL cells xenotransplanted in NSG mice; assay: In vivo efficacy in DLBCL xenografts (bioluminescence, flow cytometry, immunohistochemistry); design: species or system mouse; conditions: multiple DLBCL xenograft models in NSG mice, 7.5 mg/kg daily IP vs vehicle

CN1CC[C@H](c2c(O)cc(O)c3c(=O)cc(-c4ccccc4Cl)oc23)[C@H](O)C1 [flavopiridol]
sensitivity of proliferation to lower doses (DLBCL cell lines [1]; DHL7, DLBCL cell line with single copy RB1 loss, lower doses): less sensitive | cellular proliferation (DLBCL cell lines [1]; DLBCL cell lines with decreased or absent p53 activity and CNAs of cell cycle components, nanomolar doses, 1-4 days): decreased the cellular proliferation | cell cycle (S phase, arrest) (DLBCL cell lines [2]): decreased S phase and induced cell cycle arrest | apoptosis (DLBCL cell lines [3]): increased apoptosis | phosphorylation of RB1 at CDK4/6 and CDK2-specific sites (pS780 and pT821) [4]: decreased the phosphorylation of RB1 | lymphoma infiltration of bone marrow and spleen [5]: significantly reduced | tumor growth ([5]; bioluminescence): significantly reduced tumor growth
